Results published in patent US5922775A, “Method of treating malignant tumors with ketone thyroxine analogues having no significant hormonal activity” (priority 1997, dated 1999).
“Also recorded” adds a separate entry of the source.

Assays:
cancer cells = assay: Blocking of mitosis in cancer cells; type: cell-based
[1] = test system: microtubule protein (MTP); assay: Microtubule assembly (MTP polymerization) in vitro, optical test at 350 nm; type: biochemical, bovine or rabbit (brain)
From the text: This inhibition is critically dependent on the concentration of GTP. The quantitative correlation between the concentrations of DIME and GTP, under conditions of a linear rate of MTP polymerization, follows Michaelis-Menten kinetics and the inhibition portrays a "mixed" type, where km for GTP and Vmax are altered simultaneously. Chemical analogues of DIME inhibit MTP polymerization parallel to their antitumorigenic action in vivo. The MTP site is one of the early cellular response sites of DIME.
J. Oncol. Abnormal spindle structures could be the result of DIME-MTP interaction or reactions of DIME with components of the microtubule organizing center or with as yet undefined systems sequentially or in concert. Since time-dependent quantitative analysis of the MTP system in situ is unsuitable for initial velocity measurement we adapted the in vitro assembly system of neurotubules as a model for a quantitative analysis of the interaction of DIME with MTP. […] The time course of MTP assembly consists of initiation and propagation and termination steps, Gaskin, et al., 1974, "Turbidimetric studies of the in vitro assembly and disassembly of porcine neurotubules", J. Mol. Biol. 89:737-758. The rate of propagation under defined conditions is sufficiently linear to permit kinetic analysis, that can be evaluated with respect DIME and GTP concentrations. As we show here the inhibition of MTP assembly by DIME occurs in the same range of drug concentration as required to inhibit tumorigonesis in vivo, or to inhibit cell replication or induce eventual cell death; Mendeleyev, et al., 1997. "Structural specificity and tumoricidal action of methyl-3,5-diiodo-4-(4'-methoxyphenoxy)benzoate (DIME)" Int. J. Oncol., 10:689-695. Therefore the DIME-MTP interaction is most probably a component of the apparently pleiotropic cellular mechanism of action of DIME.
Preparation of MTP and an optical test for polymerization was adopted from published methods, Gaskin, et al., 1974, "Turbidimetric studies of the in vitro assembly and disassembly of porcine neurotubules", J. Mol. Biol. 89:737-758; Tiwari, et al., 1993, "A pH and temperature-dependent cycling method that doubles the yield of microtubule protein", Anal. Biochem. 215:96-103. Bovine or rabbit brain was homogenized in an equal volume of ice cold buffer containing 100 mM Pipes/K^+ (pH 7.4), 4 mM EGTA. 1 mM MgCl2, 0.5 mM DTT and 0.1 mM PMSF, and centrifuged at 39,000 g for 1 hour at 4° C. To the supernatant, DMSO (8% final concentration) and GTP (1 mM final concentration) were added, followed by incubation at 37° C. for 30 minutes. Microtubules were pelleted at 100,000 g at 37° C. for 30 minutes. The pellets were incubated on ice for 15 minutes, followed by resuspension in ice cold PEM buffer (100 mM Pipes/K+ (pH 6.9), 1 mM EGTA, 1 mM MgCl2). This warm polymerization and cold depolymerization cycle was repeated once more and the cold, resuspended monomeric MTP (8-10 mg/ml protein) was used for the optical test for polymerization kinetics. Both rabbit or bovine brain yielded identical MTP preparations.
The polymerization reaction was started by the addition of […] of MTP solution (equivalent to 0.8-1.0 mg protein) and initial linear rates of increase in absorbance at 350 nm followed and recorded at 37° C. in a Perkin-Elmer 552 double beam spectrophotometer, equipped with a thermostatically controlled cuvette holder.
It is apparent that the rate of MTP polymerization proceeds in a linear manner, thus conditions for maximal polymerization rates as defined by Berne, B, 1974, "Interpretation of light scattering from long rods", J. Mol. Biol. 89:755-758 appear fulfilled. Therefore it is possible to determine the quantitative correlation between [DIME] and [GTP] by comparing the linear rate in the presence of varying drug and activator concentrations.
The assay system consisted of 240 μl of PEM buffer containing 8% DMSO […]
(added in 3 μl), or solvent control and 0.6 mg MTP (60 μl). […]

[2] = oral, 1 g/Kg/day for two to three months; cited from earlier work
[3] = test system: biosynthetic pathways of DNA, RNA or proteins; conditions: cited from earlier work
[4] = test system: non-malignant mouse pituitary adenoma; conditions: cited from earlier work
Rana pipiens tadpoles = conditions: tadpole metamorphosis; cited from earlier work
thyroid iodine uptake = conditions: rats; as compared to thyroxine; cited from earlier work
mammary cancer cells = assay: Colony formation by mammary cancer cells (FIG. 1); type: cell-based, human; conditions: DIME vs DIPE
From the text: FIG. 1 is a graph illustrating the cell killing effects of DIME and DIPE on mammary cancer colonies;
The effect of DIME and DIPE on colony formation by mammary cancer cells is illustrated in FIG. 1, where the results are superimposable, confirming that cytocidal action of DIME and DIPE are indistinguishable.

[5] = test system: human mammary cancer cells (MDA-MB-231); assay: Growth of human mammary cancer cells (Table 2 A); type: cell-based; conditions: 2 μM
From the text: (§1) The effects of these three substances on the growth of human mammary cancer cells (MDA-MB-231) and human lung cancer cells (A 549) are summarized in Table 2.
In section (a) of Table 2 the effects of DIME, DIPE and DIPP on the growth of mammary cancer cells, assayed at 48 and 72 hrs, is shown. […] The slightly lesser efficacy of DIPP could be predicted from earlier results obtained with DIME analogs (International Journal of Oncology, 1997, 10, 689-695, FIG. 1) where we have shown that extending the methyl to ethyl substitution (on the carboxyl ester) diminishes cytotoxicity against tumor cells. A similar phenomenon occurs when DIPE is extended to DIPP (i.e. from the ethanone to the propanone).
(§2) (×10^3) Cell number per 2 cm^2

protein phosphatase 2A = conditions: cited from earlier work
[6] = test system: human lung cancer cells (A 549); assay: Growth of human lung cancer cells (Table 2 B); type: cell-based
From the text: as §1, §2

SMILES: COC(=O)c1cc(I)c(Oc2ccc(OC)cc2)c(I)c1 [DIME, methyl 3,5-diiodo-4-(4'-methoxyphenoxy)benzoate]
- blocking of mitosis in cancer cells (cancer cells): capable of blocking mitosis in cancer cells
- Percent inhibition of intitial velocity (microtubule assembly in vitro) ([1]; 10 μM drug, GTP 1 mM, 37° C., averages of duplicate assay): 93%
- change of km GTP ([1]; 1 mM DIME [sic]): ~50%
- decrease of Vmax ([1]; 1 mM DIME [sic]): ~50%
- Km ([1]; 1 mM DIME [sic], from 6.7 mM without drug, read-out: km GTP in presence of DIME): 14 µM
- inhibition of MTP polymerization with increasing DIME ([1]; 1 mM GTP, increasing DIME concentrations): progressively inhibit MTP polymerization
- inhibition of GTP-dependent polymerization of MTP ([1]; DIME at 1 to 5 mM as printed): inhibits the GTP-dependent polymerization of MTP
- type of inhibition of MTP polymerization (DIME vs GTP) ([1]; double reciprocal plot / Michaelis-Menten, 1 mM DIME): "mixed" type inhibition
- inhibitory action on MTP assembly (comparison, FIG. 2) ([1]; drug concentrations up to 20 μM): similar
- order of potency on MTP assembly (FIG. 3) ([1]; zero to 10 μM drug, lowered GTP concentration (10 μM)): DIME>DIPE>DIPP
- toxicity [2]: not toxic
- inhibition of biosynthetic pathways of DNA, RNA or proteins [3]: nor does it inhibit the biosynthetic pathways of DNA, RNA or proteins
- inhibition of growth of non-malignant pituitary tumor [4]: no inhibitory activity
- cell differentiating / metamorphogenic activity (Rana pipiens tadpoles): no significant metabolic or metamorphogenic action; also recorded: no significant metabolic or cell differentiating activity
- inhibition of uptake of iodine into the thyroid (thyroid iodine uptake): 15%
- effect on colony formation (FIG. 1) (mammary cancer cells): superimposable
- Cell number ([5]; 48 hours, control 150): 60 ×10^3 cell number per 2 cm^2 w
- Cell number ([5]; 72 hours, control 300): 65 ×10^3 cell number per 2 cm^2 w
- activation of protein phosphatase 2A (protein phosphatase 2A): directly activates protein phosphatase 2A
- Cell number ([6]; 2 μM, 48 hours, control 110): 100 ×10^3 cell number per 2 cm^2 w
- Cell number ([6]; 2 μM, 72 hours, control 190): 180 ×10^3 cell number per 2 cm^2 w
- Cell number ([6]; 5 μM + BNPP 150 μM (esterase inhibitor), 48 hours, control 110): 24 ×10^3 cell number per 2 cm^2 w
- Cell number ([6]; 5 μM + BNPP 150 μM (esterase inhibitor), 72 hours, control 190): 15 ×10^3 cell number per 2 cm^2 w
- Cell number ([6]; 5 μM, 48 hours, control 110): 72 ×10^3 cell number per 2 cm^2 w
- Cell number ([6]; 5 μM, 72 hours, control 190): 135 ×10^3 cell number per 2 cm^2 w
- effect of esterase inhibitor BNPP on cytocidal action ([6]; lung cancer cells, with BNPP): the esterase inhibitor supported the DIME effect (at 72 hrs)
